Measured values reported in article PMC4043309 (Journal of medicinal chemistry, 2013).

How the values were obtained:
[1] = Stabilities; format: physicochemical; conditions: for stability: isomerization on storage: methanol or methanol–chloroform mixture (v/v 1:1) as solvent
[2] = molecular target: T1, recombinant human estrogen receptor-α (ER-α) (Homo sapiens, UniProt P03372); format: binding; conditions: at 100 μM compound
T1 sequence (P03372 1-595): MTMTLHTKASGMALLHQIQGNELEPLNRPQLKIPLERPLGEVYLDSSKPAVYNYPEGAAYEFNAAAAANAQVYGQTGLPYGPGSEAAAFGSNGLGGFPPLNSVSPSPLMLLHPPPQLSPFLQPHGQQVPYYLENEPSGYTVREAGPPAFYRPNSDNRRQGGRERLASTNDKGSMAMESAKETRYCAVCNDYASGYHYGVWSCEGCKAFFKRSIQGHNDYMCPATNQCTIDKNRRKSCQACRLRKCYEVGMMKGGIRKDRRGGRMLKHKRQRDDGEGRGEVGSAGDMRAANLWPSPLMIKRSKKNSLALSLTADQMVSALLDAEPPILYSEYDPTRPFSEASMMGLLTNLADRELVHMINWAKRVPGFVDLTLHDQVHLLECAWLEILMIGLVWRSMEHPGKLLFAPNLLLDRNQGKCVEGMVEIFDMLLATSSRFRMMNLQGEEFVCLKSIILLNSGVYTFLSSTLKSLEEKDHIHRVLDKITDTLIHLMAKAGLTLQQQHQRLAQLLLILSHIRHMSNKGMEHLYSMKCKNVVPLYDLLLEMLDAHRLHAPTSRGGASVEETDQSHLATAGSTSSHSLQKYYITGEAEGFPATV

[3] = molecular target: recombinant human estrogen receptor-β (ER-β) (Homo sapiens, UniProt Q92731); format: binding; conditions: at 100 μM compound
recombinant human estrogen receptor-β (ER-β), sequence (Q92731 whole entry): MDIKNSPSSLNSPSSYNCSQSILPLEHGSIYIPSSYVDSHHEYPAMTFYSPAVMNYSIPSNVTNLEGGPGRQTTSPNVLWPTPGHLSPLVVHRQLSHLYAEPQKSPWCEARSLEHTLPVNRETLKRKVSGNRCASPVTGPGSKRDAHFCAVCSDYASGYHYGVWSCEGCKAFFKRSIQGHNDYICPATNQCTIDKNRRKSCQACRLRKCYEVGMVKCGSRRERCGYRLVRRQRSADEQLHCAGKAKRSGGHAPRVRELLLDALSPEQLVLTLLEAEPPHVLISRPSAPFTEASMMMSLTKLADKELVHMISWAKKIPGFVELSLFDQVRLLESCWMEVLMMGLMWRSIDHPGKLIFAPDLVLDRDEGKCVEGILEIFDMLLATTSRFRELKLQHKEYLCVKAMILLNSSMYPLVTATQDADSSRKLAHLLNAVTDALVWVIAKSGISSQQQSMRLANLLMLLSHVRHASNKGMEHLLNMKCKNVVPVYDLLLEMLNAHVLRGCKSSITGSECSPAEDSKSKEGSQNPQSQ

[4] = molecular target: T2, recombinant human aromatase (CYP19) (Homo sapiens, UniProt P11511); test: Inhibition of recombinant human aromatase
T2 sequence (P11511 1-503): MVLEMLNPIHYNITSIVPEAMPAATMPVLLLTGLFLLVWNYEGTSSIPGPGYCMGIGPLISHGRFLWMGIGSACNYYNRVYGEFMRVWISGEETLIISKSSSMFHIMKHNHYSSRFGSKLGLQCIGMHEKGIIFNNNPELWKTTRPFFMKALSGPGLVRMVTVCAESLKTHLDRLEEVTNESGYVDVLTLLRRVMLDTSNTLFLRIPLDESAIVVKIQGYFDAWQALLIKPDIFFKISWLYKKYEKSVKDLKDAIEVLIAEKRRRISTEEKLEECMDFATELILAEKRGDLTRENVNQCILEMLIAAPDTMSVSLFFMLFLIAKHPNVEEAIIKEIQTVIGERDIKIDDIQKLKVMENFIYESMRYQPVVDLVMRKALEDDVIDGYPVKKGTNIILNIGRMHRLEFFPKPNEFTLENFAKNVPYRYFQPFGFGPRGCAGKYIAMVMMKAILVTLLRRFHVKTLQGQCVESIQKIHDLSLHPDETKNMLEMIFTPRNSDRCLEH

| stability: isomerization to mixed (E,Z)-norendoxifen ([1]; chloroform (or dichloromethane) as the single solvent) | ER-α percent competition [2] [% competition] | ER-β percent competition [3] [% competition] | fold less potent against aromatase than mixed (E,Z)-norendoxifen [4] [fold] | Compound | stability: isomerization on storage [1] |
| --- | --- | --- | --- | --- | --- |
| – | – | – | – | CC/C(=C(/c1ccc(O)cc1)c1ccc(OCCN)cc1)c1ccccc1 [E-4, (E)-4-(1-(4-(2-Aminoethoxy)phenyl)-2-phenylbut-1-enyl)phenol] | stored for at least a few weeks without substantial isomerization |
| fast isomerization | – | – | – | CC/C(=C(\c1ccc(O)cc1)c1ccc(OCCN)cc1)c1ccccc1 [Z-4, (Z)-4-(1-(4-(2-Aminoethoxy)phenyl)-2-phenylbut-1-enyl)phenol] | stored for at least a few weeks without substantial isomerization |
| – | 56 | 45 | – | CC/C(=C(/c1ccc(OCC(N)=O)cc1)c1ccc(OC(=O)C(C)(C)C)cc1)c1ccccc1 [compound 7, (E)-4-(1-(4-(2-Amino-2-oxoethoxy)phenyl)-2-phenylbut-1-enyl)-phenyl Pivalate] | – |
| – | 68 | 68 | – | CC/C(=C(/c1ccc(O)cc1)c1ccc(OC(=O)C(C)(C)C)cc1)c1ccccc1 [compound 6, (E)-4-(1-(4-Hydroxyphenyl)-2-phenylbut-1-enyl)phenyl Pivalate] | – |
| – | 57 | 71 | 90 | CC/C(=C(\c1ccc(O)cc1)c1ccc(OCC(N)=O)cc1)c1ccccc1 [compound 3, (E,Z)-2-(4-(1-(4-Hydroxyphenyl)-2-phenylbut-1-enyl)phenoxy)-acetamide] | – |
| – | 80 | – | – | CCC(=C(c1ccc(O)cc1)c1ccc(O)cc1)c1ccccc1 [compound 2, 4,4′-(2-Phenylbut-1-ene-1,1-diyl)diphenol] | – |
